Data published in US5756505A, “N-acylpiperazine derivative, antibacterial drug and anti-ulcer drug” (Shiseido Co., Ltd., priority 1995, dated 1998).

Tests used:
[1] = test system: stress ulcer formation; experiment: WIS: Restraint and Water Immersion Stress-Induced Ulcer Inhibition Test; type: in vivo, rat (male Crj:SD or Slc:SD); conditions: rat; for WIS: ulcer formation inhibitory rate: 100 mg/kg oral, 7 hours stress
Procedure: WIS: Restraint and Water Immersion Stress-Induced Ulcer Inhibition Test
The degree of inhibition of the stress ulcer formation is tested.
Male Crj:SDor Slc:SD rats (6 to 7-week-old) were fasted overnight, but allowed free access to water. Each group has 5 to 8 of these rats. The sample compound was dissolved or suspended in an aqueous solution of 0.3% sodium carboxymethylcellulose or 0.05% Tween 80 and then was orally administered (100 mg/10 ml/kg). To a control group, the vehicle was administered. 10 minuts later, the rats were placed in a stress cage and immersed to the level of xipfoid process in a water bath (21° C.) for 7 hours. At the end of the stress, the rats were sacrificed by inhalation of ether or carbon dioxide. Then, the stomach of each was removed, inflated by injecting 10 ml of 5% formalin neutral buffer solution, and immersed in 1% formalin neutral buffer solution for 30 minutes or more to be fixed. The stomach was incised along the greater curvature and then the length of each erosion in the glandular portion was determined under dissecting microscope. The sum of the length of erosions per stomach was defined as ulcer index (UI).
The effect obtained when 100 mg/kg of the sample compound had been administered was expressed as ulcer formation inhibitory rate (%) as follows:
ulcer formation inhibitory rate (%)=[1-(UI in sample group/UI in control group)]×100

[2] = test system: isolated gastric fundic gland; experiment: CAP: Acid Secretion Inhibition Test In Vitro ([14C]-aminopyrine uptake); type: cell-based, rabbit (male Japanese White); conditions: Oryctolagus cuniculus, final concentration 10^-5 M, histamine 10^-5 M, rabbit gastric fundic gland; read-out: CAP: acid secretion inhibitory rate
Procedure: CAP: Acid Secretion Inhibition Test In Vitro
The acid secretion inhibitory activity in a cell level is studied. It can also be used for studying the mechanism of the effect. […]
ii-a) Preparation of isolated gastric fundus gland suspension
First, an isolated gastric fundic gland sample was prepared. Namely, a male Japanese White rabbit (2.5 to 3 kg) was anesthetized to death with Nembutal™ and then the abdomen was incised. Immediately thereafter, the stomach was removed and, after its pyloric and cardiac antrum were severed, incised along its greater curvature into two sheets. The gastric contents adhering to the mucosal surface was washed out with ice-cooled PBS (-) and then carefully washed therein. The gastric wall was spread on a cork board with its mucosal surface facing up and the feed and mucus thereon were completely removed with sterile gauze. The mucosa was separated therefrom by a spatula and then collected in ice-cooled PBS (-). After being washed twice with PBS (-), the mucosa was minced into 2-3mm^3 pieces by scissors. These pieces were further washed twice with a nutrient solution. The nutrient solution comprises 132.4 mM of NaCl, 5.4 mM of KCl, 5 mM of Na2 HPO4 ·12H2 O, 1 mM of NaH2 PO4 ·2H2 O, 1.2 mM of MgSO4, 1 mM of CaCl2, 25 mM of HEPES, 2mg/ml of glucose, and 1 mg/ml of BSA. Into 70 ml of the nutrient solution containing 1 mg/ml of collagenase, minced mucosal pieces were dispersed and intensely stirred in a conical flask with a stirrer at 37° C. for 40 to 60 minutes. During this period, 100% O2 was sprayed on the nutrient solution surface and the pH was appropriately measured such that it was immediately adjusted to pH 7.4, when the value was therebelow, with a base. The nutrient solution was added to the reaction solution so as to attain the total amount of about 200 ml. After being filtered through a mesh, the suspension was divisionally introduced into 50 ml centrifuge tubes and left for 15 minutes such that gastric fundic gland was deposited. The supernatant was repeatedly removed by an aspirator, dispersed in the nutrient solution, and then left such that the gastric fundic gland was washed three times. At this time, without using a pipette, the suspension was alternately introduced into two centrifuge tubes so as to effect dispersion. The number of cells was counted under microscope and adjusted to 1.6×10^6 cells/ml. […]
ii-b) [^14 C]-aminopyrine uptake test
Then, [^14 C]-aminopyrine uptake test was performed. After an Eppendorf tube was weighed, 10 μl (final concentration: 10^-5 M) of histamine dissolved in the above-mentioned nutrient solution, 10 μl (final concentration: 10^-5 M) of the test compound dissolved in DMSO, and 10 μl (final concentration: 0.05 μCi/ml) of [^14 C]-aminopyrine diluted with the nutrient solution were introduced therein and then 970 μl of the isolated gastric fundic gland suspension prepared above were added thereto. Subsequently, this mixture was shaken at 37° C. for 40 minutes at 125 cycles/minute. After being centrifuged for 30 minutes 200 μl of its supernatant was collected into a mini-vial, while the rest was removed by an aspirator. The gland pellet was completely dried as the tube with its lid being opened was kept for one night in a drying oven at 80° C. and then the lid was closed and the weight was determined at room temperature. Then 100 μl of 1N KOH were added thereto and the tube with its lid being closed was treated at 60° C. for 1 to 2 hours so as to dissolve the pellet. Then, the contents thereof were transferred to a mini-vial. Into the mini-vial containing the supernatant or gland pellet, 4 ml of Atomlite™ were added and then the radioactivity was measured by a liquid scintillation counter. Here, after the radioactivity of the gland pellet was corrected by using a sample in which 20 mM of NaSCN were added so as to cancel the hydrogen ion concentration gradient, the integration ratio of aminopyrine specifically trapped by the gland pellet was calculated. […]

[3] = MTT: Cell Damaging and Protecting Effect Test; type: cell-based, rabbit (male Japanese White); conditions: rabbit, gastric mucosal cells, final concentration 10^-4 M, 4 hours; smaller value is better; read-out: MTT: cell damaging rate
Text: MTT: Cell Damaging and Protecting Effect Test
It is confirmed that there is no toxicity in cell level. Those having a toxicity in cell level are inappropriate as an anti-ulcer drug.
A male Japanese White rabbit (2.5 to 3 kg) was anesthetized to death by Nembutal™ and, immediately thereafter, its stomach was removed. The greater curvature of the stomach was incised so as to remove the stomach contents therefrom. After the mucosal surface was washed with HBSS (Hanks' Balanced Salt Solution), the stomach in ice-cooled HBSS was transferred to a laboratory. Then, after the pyloric antrum was removed, the gastric corpus mucosa was separated by a spatula and then minced into 2 to 3 mm^3 pieces in BME (Basal Medium Eagle). Thereafter, these pieces were shaken at 120 to 130 cycles/minute for 15 minutes at 37° C. in BME 60ml containig 280 U/ml of dispase and 30 to 50 U/ml of collagenase. Here, the concentration of collagenase was appropriately changed for each lot in view of the state of cells. The pieces were washed twice with EBSS (Earle's Balanced Salt Solution) containing 1 mM of EDTA and then shaken in MEM (Minimum Essential Medium) containing 1 mM of EDTA at 37° C. for 5 minutes. Subsequently, they were shaken in the dispase and collagenase having the same concentrations as those mentioned above for 15 minutes so as to remove the supernatant and then further shaken at 37° C. for 50 to 60 minutes at 120 to 130 cycles/minute. Then, after being washed twice with HBSS, Ham F12 containing 2% of Ultrocer G™ was used to attain the concentration of 1×10^6 cells/ml. Thus formed suspension was dispensed in each well of a 96-well plate by 200 μl. The plate was incubated in the atmosphere composed of 5% CO2 and 95% air at 37° C. for three days so as to attain a confluent state and then subjected to MTT assay.
The sample compound was dissolved in DMSO so as to attain a concentration of 10^-2 M and then diluted with HBSS containing 2% of Ultrocer G™ so as to attain a final concentration of 10^-4 M. To each group, which 8 wells were used for, 10 μl of MTT reagent were added immediately after 100 μl of the medium in each well were exchanged for same volume of the resulting solution of the sample compound. After being incubated in an atmosphere composed of 5% CO2 and 95% air at 37° C. for 4 hours, thus formed solution was centrifuged and then its supernatant was discarded. Subsequently, 100 μl of 100% ethanol were added to the residue so as to dissolve MTT formazan. Then, the absorbance (OD: 570 to 630) was measured by a microplate reader. This method utilizes a phenomenon in which MTT is changed to MTT formazan only by mitochondria of living cells so as to change color.
The cell damaging or cell protecting effect of the sample compound at the final concentration of 10^-4 M was expressed as cell damaging rate (%) as follows:
cell damaging rate (%)=[1-(absorbance in sample group/absorbance in control group)]×100
Accordingly, the smaller value is better in the cell damaging rate.

[4] = cited from earlier work

For `CC(C)CN1CCN(C(=O)c2ccc(OCc3ccc(F)cc3)c(N)c2)CC1.Cl.Cl` [Example 1, 1-[3-amino-4-(4-fluorobenzyloxy)benzoyl]-4-isobutylpiperazine dihydrochloride], the “WIS: ulcer formation inhibitory rate” value [1] was 88%.

For `COc1cc(C(=O)N2CCN(CC(C)C)CC2)ccc1OCc1ccc(F)cc1.Cl` [Example 7, 1-[4-(4-fluorobenzyloxy)-3-methoxybenzoyl]-4-isobutylpiperazine hydrochloride], the inhibition at 10 µM [2] was 100%, the “WIS: ulcer formation inhibitory rate” value [1] was 48% and the cytotoxicity at 4 h, 100 µM [3] was -72%.

For `CC(C)Cc1cc(C(=O)N2CCN(CCOC(=O)c3ccc4c(c3)OCO4)CC2)ccc1OCc1ccc(F)cc1` [Example 10, 1-[4-(4-fluorobenzyloxy)-3-isobutylbenzoyl]-4-[2-(piperonyloyloxy)ethyl]piperazine], the inhibition at 10 µM [2] was 100%, the “WIS: ulcer formation inhibitory rate” value [1] was 54% and the “anti-ulcer effect (in words)” value ([1]; in vivo) was “sufficient effects”. For the same molecule, the cytotoxicity at 4 h, 100 µM [3] was 34%.

For `CC(C)Cc1cc(C(=O)N2CCN(CC(C)C)CC2)ccc1OCc1ccc(C#N)cc1.Cl` [Example 11, 1-[4-(4-cyanobenzyloxy)-3-isobutylbenzoyl]-4-isobutylpiperazine hydrochloride], the inhibition at 10 µM [2] was 100%, the “WIS: ulcer formation inhibitory rate” value [1] was 94% and the cytotoxicity at 4 h, 100 µM [3] was -77%.

For `Cc1c(N(C)C)c(=O)n(-c2ccccc2)n1C` [aminopyrine], the pKa [4] is given as 5.0.
